Data set [1] deals with T1, human NHE-3 protein (expressed in the LAP1 cell line) (Homo sapiens, UniProt P48764).
T1 construct: expressed in transfected cells; host or cells: LAP1 cell line
T1 sequence (P48764 26-834): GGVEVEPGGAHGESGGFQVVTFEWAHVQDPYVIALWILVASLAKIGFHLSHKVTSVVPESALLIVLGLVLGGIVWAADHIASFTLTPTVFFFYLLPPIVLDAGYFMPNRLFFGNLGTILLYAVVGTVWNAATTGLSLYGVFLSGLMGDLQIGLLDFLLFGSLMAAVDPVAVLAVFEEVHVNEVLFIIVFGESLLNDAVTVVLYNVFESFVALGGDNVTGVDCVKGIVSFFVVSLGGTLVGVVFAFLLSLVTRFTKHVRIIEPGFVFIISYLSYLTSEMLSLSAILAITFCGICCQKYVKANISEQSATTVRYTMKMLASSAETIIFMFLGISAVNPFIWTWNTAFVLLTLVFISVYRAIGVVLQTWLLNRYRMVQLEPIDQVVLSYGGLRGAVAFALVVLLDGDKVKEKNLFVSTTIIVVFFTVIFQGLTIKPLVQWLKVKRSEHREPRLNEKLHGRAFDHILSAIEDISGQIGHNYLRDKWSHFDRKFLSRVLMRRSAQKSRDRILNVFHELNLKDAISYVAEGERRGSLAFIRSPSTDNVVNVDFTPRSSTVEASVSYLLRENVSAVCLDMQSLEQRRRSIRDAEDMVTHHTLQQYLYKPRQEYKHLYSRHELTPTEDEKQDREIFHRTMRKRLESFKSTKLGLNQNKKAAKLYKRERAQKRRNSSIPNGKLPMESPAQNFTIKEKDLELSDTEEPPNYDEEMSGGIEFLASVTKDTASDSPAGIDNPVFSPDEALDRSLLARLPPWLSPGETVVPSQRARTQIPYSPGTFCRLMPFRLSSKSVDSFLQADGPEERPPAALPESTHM
In words: Inhibition of sodium/proton exchanger subtype 3: recovery of intracellular pH after acidification (BCECF fluorescence). In kind it is cell-based. The settings on record: pHi recovery as percentage of the maximum recovery, read-out: remaining activity of hNHE3. On the procedure:
Biological testing of the novel compounds was accomplished by measuring inhibition of the sodium/proton exchanger subtype 3.
The remaining activity of the human NHE-3 protein (expressed in the LAP1 cell line) was determined by measuring the recovery in the intracellular pH (pHi) after an acidification, which starts when the NHE is capable of functioning, even under bicarbonate-free conditions. For this purpose, the pHi was determined using the pH-sensitive fluorescent dye BCECF (Calbiochem, the precursor BCECF-AM is employed). The cells were initially loaded with BCECF. […] The intracellular acidification was induced by addition of 975 μl of an NH4Cl-free buffer (see below) to 25 μl aliquots of the cells incubated in NH4Cl buffer. The subsequent rate of pH recovery was recorded for 3 minutes. To calculate the inhibitory power of the substances tested, the cells were initially investigated in buffers in which complete or absolutely no pH recovery took place. […] Test solutions of the substances of interest were made up in the Na^+-containing buffer. Recovery of the intracellular pH at the tested concentration of a substance was expressed as a percentage of the maximum recovery.

Where a name gives a salt, the structure may show the parent alone.

By melting point is commonly meant the temperature, or range, at which the solid turns liquid. The remaining activity is what remains of the control signal, in per cent.

`CC(=O)c1c(C)nc2ccccc2c1NCc1cccc(CCC2(O)CC[C@@]3(C)C(CC(O)C4C3CC(O)[C@@]3(C)C4CC[C@@H]3[C@H](C)CCC(=O)O)C2)c1` (stereo partly drawn) [Example 14, 2-Methyl-3-acetyl-4-{3-[1-(3α,7α,12α-trihydroxy-10β,13β-dimethyl-17β-(3-carboxy-1-methylpropyl)hexadecahydrocyclopenta[a]phenanthren-3-yl)eth-2-yl]benzylamino}quinoline]: the melting point is > 170 °C (dec.). In data set [1], the remaining activity at 30 µM was determined as 52%.
On the same counts, the results for `CC(=O)c1c(C)nc2ccccc2c1NCc1ccc(C(=O)NCCO[C@H]2CC[C@@]3(C)C(C2)C[C@@H](O)C2C3C[C@H](O)[C@@]3(C)C2CC[C@@H]3[C@H](C)CCC(=O)O)cc1` (stereo partly drawn) [Example 20, 4-[3β-(2-{4-[(3-Acetyl-2-methylquinolin-4-ylamino)methyl]benzoylamino)-ethoxy)-7α,12α-dihydroxy-10β,13β-dimethylhexadecahydrocyclopenta[a]phenanthren-17β-yl]pentanoic acid] are > 145 °C (dec.) and 56%.
With `Cc1nc2ccccc2c(NCc2ccccc2)c1C(=O)NCCOC1CCC2(C)C(C1)CC(O)C1C2CC(O)C2(C)C1CC[C@@H]2C(C)CCC(=O)O` (stereo partly drawn), the melting point worked out at 143 °C.
`CC(=O)c1c(C)nc2ccccc2c1NCc1cccc(C#CC2(O)CC[C@@]3(C)C(CC(O)C4C3CC(O)[C@@]3(C)C4CC[C@@H]3[C@H](C)CCC(=O)O)C2)c1` (stereo partly drawn) [Example 13, 2-Methyl-3-acetyl-4-{3-[1-(3α,7α,12α-trihydroxy-10β,13β-dimethyl-17β-(3-carboxy-1-methylpropyl)hexadecahydrocyclopenta[a]phenanthren-3-yl)ethyn-2-yl]benzylamino}quinoline]: the melting point is > 195 °C (dec.). For the same molecule, in data set [1], the remaining activity at 30 µM was determined as 40%.
Turning to `Cc1nc2ccccc2c(NCc2ccccc2)c1C(=O)NCCOC1CCC2(C)C(C1)CC(O)C1C2CC(O)C2(C)C1CC[C@@H]2C(C)CCC(=O)NCCS(=O)(=O)O` (stereo partly drawn) (as salt: trifluoroacetate), the melting point was 180 °C.
`COC(=O)c1c(C)nc2cccc(C)c2c1NCc1ccc(C#CC2(O)CCC3(C)C(CC(O)C4C3CC(O)C3(C)C4CC[C@@H]3C(C)CCC(=O)O)C2)cc1` (stereo partly drawn) [Example 11, Methyl 2,5-dimethyl-4-{4-[1-(3α,7α,12α-trihydroxy-10β,13β-dimethyl-17β-(3-carboxy-1-methylpropyl)hexadecahydrocyclopenta[a]phenanthren-3-yl)ethyn-2-yl]benzylamino}quinoline-3-carboxylate] had a melting point above 155 °C. Moreover, the remaining activity at 30 µM in data set [1] amounted to 61%.
Turning to `CCc1nc2ccccc2c(NCc2ccc(CCC3(O)CCC4(C)C(CC(O)C5C4CC(O)C4(C)C5CC[C@@H]4C(C)CCC(=O)O)C3)cc2)c1C(=O)OC` (stereo partly drawn), the melting point was > 190 °C (dec.).
`COC(=O)c1c(C)nc2ccc(CCC3(O)CCC4(C)C(CC(O)C5C4CC(O)C4(C)C5CC[C@@H]4C(C)CCC(=O)O)C3)cc2c1NCc1ccccc1` (stereo partly drawn): the melting point is > 185 °C (dec.).
`Cc1nc2ccccc2c(NCc2ccc(C#CC3(O)CCC4(C)C(CC(O)C5C4CC(O)C4(C)C5CC[C@@H]4C(C)CCC(=O)O)C3)cc2)c1C(=O)OC(C)C` (stereo partly drawn) registered a melting point of 150 °C.
Take `COC(=O)c1c(C)nc2cccc(C)c2c1NCc1ccc(CCC2(O)CCC3(C)C(CC(O)C4C3CC(O)C3(C)C4CC[C@@H]3C(C)CCC(=O)O)C2)cc1` (stereo partly drawn): the melting point was > 180 °C (dec.).
Turning to `COC(=O)c1c(C)nc2ccc(C#CC3(O)CCC4(C)C(CC(O)C5C4CC(O)C4(C)C5CC[C@@H]4C(C)CCC(=O)O)C3)cc2c1NCc1ccccc1` (stereo partly drawn), the melting point is 223 °C (dec.).

(Values after patent US6339077B1, “Substituted 4-benzylaminoquinolines and their hetero analogs, process for their preparation, pharmaceuticals containing these compounds and use thereof” (Aventis Pharma Deutschland GmbH, priority 1999, dated 2002).)
